Assay [1] concerns macrophage MT-1 induced from iPS cells (mutant NLRP3 gene). Particulars: for amount of secretion of IL-1β: 100 ng/ml IL-1Ra, 12 μM Bay11-7028, 50 μM CA074Me or 10 μM Parthenolide, two hours, then drug and LPS (1 μg/ml) four hours, FIG. 5A; for amount of IL-1β secretion: each concentration of drug, cultured two hours, then drug and LPS (1 μg/ml) another four hours, FIG. 4.
The test system is the same in assay [2]. Description: amount of IL-8 secretion from LPS-stimulated macrophage MT-1 (Human Th1/Th2 11plex Kit). Particulars: 100 ng/ml IL-1Ra, 12 μM Bay11-7028 or 10 μM Parthenolide; two hours, then drug and LPS (1 μg/ml) four hours; FIG. 5B.
The test system is the same in assay [3]. The assay is described as follows: amount of IL-6 secretion from LPS-stimulated macrophage MT-1 (Human Th1/Th2 11plex Kit). The conditions noted are these: 100 ng/ml IL-1Ra, 12 μM Bay11-7028 or 10 μM Parthenolide; two hours, then drug and LPS (1 μg/ml) four hours; FIG. 5C.

Residues, ends and D or L forms follow the SMILES beside them. *: point of attachment. Cbz = O=C(OCc1ccccc1)*

In the case of `Cc1ccc(S(=O)(=O)/C=C/C#N)cc1` [Bay11-7028], in assay [1], the “amount of secretion of IL-1β” value is recorded as “inhibited”. Also, the “amount of secretion of IL-8” value in assay [2] is recorded as “inhibited”. In addition, in assay [3], the “amount of secretion of IL-6” value is “inhibited”.
Take `CCCNC(=O)[C@H]1O[C@@H]1C(=O)N[C@H](C(=O)N1CCC[C@H]1C(=O)OC)[C@@H](C)CC` [CA074Me]: the “amount of secretion of IL-1β” value in assay [1] is listed as “specifically inhibited”.
Consider `C[C@@H]1C[C@@H]([C@H](O)CC2CC(=O)NC(=O)C2)C(=O)[C@@H](C)C1` [CHX, cycloheximide], for which the “amount of IL-1β secretion” value in assay [1] is given as “inhibited IL-1β secretion in a dose dependent manner”.
For `CC(C)C[C@@H](C=O)NC(=O)[C@H](CC(C)C)NC(=O)[C@H](CC(C)C)NC(=O)OCc1ccccc1` [MG132] (Cbz-Leu-Leu-Leu-aldehyde), the “amount of IL-1β secretion” value in assay [1] is “inhibited IL-1β secretion in a dose dependent manner”.
As for “IL-1Ra: interleukin 1 receptor antagonist (R&D Systems)”, in assay [1], the “amount of secretion of IL-1β” value is “did not change”. In addition, the “amount of secretion of IL-8” value in assay [2] was “did not change”. Further, in assay [3], the “amount of secretion of IL-6” value is recorded as “did not change”.

The values are drawn from patent US9557321B2, “Method for screening drugs for suppressing inflammasome activity” (KYOTO UNIVERSITY, priority 2010, dated 2017).
